Data: patent US10584127B2, “3,3-difluoropiperidine carbamate heterocyclic compounds as NR2B NMDA receptor antagonists” (Rugen Holdings (Cayman) Limited, priority 2015, dated 2020)

Key:
[1] = test system: immobility in forced swim test; experiment: Forced Swim Test (FST) in rats; assay type: in vivo
Source text: (§1) The forced swim test (FST) also known at the behavioural despair test was used to evaluate antidepressant activity (Porsolt et al., 1977 Arch. Int. Pharmacodyn. 229: 327-336, Porsolt et al., 1977, Eur. J. Pharmacol. 47:379-391). Mice or rats that are forced to swim in a situation from which they cannot escape, rapidly become immobile. Drugs with antidepressant activity, such as imipramine, reduce the amount of time spent in the immobile state. Therefore, the amount of immobility time during a test conducted after drug administration represents a useful indicator of antidepressant activity (Lucki et al 2001 Psychopharmacology 155:315-322; Porsolt et al., 1977, Nature 266:730-732).
Test compound E1-8.2 was administered as the free base. […]
Male Wistar rats weighing 197-251 g were used for the rat test. Rats were evaluated according to a two-session procedure with a swimming session of 15 minutes on the first day of the experiment (Session 1) followed 24 hours later by a 5-minute swimming test (Session 2). […] Rats were placed in the water 24 h later for 5 minutes (Session 2) and the duration of immobility was measured.
Animals were observed by a blinded observer. […] The amount of time each animal spent in the immobile state (and the latency to the first bout of immobility) was recorded and used for statistical analysis of compound effect. […]

[2] = test system: immobility in forced swim test; experiment: Forced Swim Test (FST) in mice; assay type: in vivo
Source text: as §1
Test compound E1-8.2 was administered as the free base.
Testing for antidepressant activity was conducted in rats or mice according to the general procedures below.
Mice were evaluated in a single swimming test session of 6 minutes. Mice were placed in a transparent plastic cylinder 24 cm high with a diameter of 13 cm containing 10 cm of water with ambient temperature control generally from 22±2° C. Mice were placed in the water for 6 minutes and the duration of immobility during the last 4 minutes was measured.
Animals were observed by a blinded observer. […] The amount of time each animal spent in the immobile state (and the latency to the first bout of immobility) was recorded and used for statistical analysis of compound effect. Group differences were evaluated by student's t-test (reference substance) or one-way ANOVA followed by post-hoc Dunnett's test (test substances). […]
Male mice (strain NLMN) weighing 25-35 g were used for testing. […] The mice were videotaped for 6 minutes, and the last 4 minutes of video were analyzed by a blinded observer off-line. […] The amount of time each animal spent in the immobile state was recorded and used for statistical analysis of compound effect. Group differences were evaluated by student's t-test or one-way ANOVA followed by post-hoc Dunnett's test. […]

Measured: antidepressant activity (immobility time)

CN(C)CCCN1c2ccccc2CCc2ccccc21 [imipramine]
expected antidepressant activity: [1]; 32 mpk i.p. 3 times: 24 h, 4 h and 30 min before the test (Session 2) | [1]; 64 mpk p.o. 3 times: 24 h, 4 h and 60 min before the test (Session 2) | [2]; 32 mpk i.p. once 30 min before the test | [2]; 64 mpk p.o. once 60 min before the test | [2]; 128 mpk p.o. once 60 minutes before the test on Day 7
